In the assay the target is Free fatty acid receptor 1 (Homo sapiens, UniProt O14842). Nature of the assay: Agonist activity at recombinant human GPR40 expressed in HEK293 cells assessed as increase in IP1 accumulation measured after 60 mins by HTRF assay.

pEC50: −log10 of the molar value.

Chain of Free fatty acid receptor 1 (O14842 whole entry): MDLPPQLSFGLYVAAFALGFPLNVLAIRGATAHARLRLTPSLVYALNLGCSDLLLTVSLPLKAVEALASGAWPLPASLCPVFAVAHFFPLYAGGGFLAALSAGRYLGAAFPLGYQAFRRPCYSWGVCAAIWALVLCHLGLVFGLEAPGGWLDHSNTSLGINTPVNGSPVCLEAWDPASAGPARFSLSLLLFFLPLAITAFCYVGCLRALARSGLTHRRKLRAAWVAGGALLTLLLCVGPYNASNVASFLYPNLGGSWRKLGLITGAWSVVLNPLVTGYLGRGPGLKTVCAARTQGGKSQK

As for `COc1cc(-c2cnc(C3CCc4ccc([C@H](C5CC5)[C@H](C)C(=O)O)cc4O3)c(F)c2)c(F)cn1` (stereo partly specified), the pEC50 (as a rule, −log10 of the EC50, conventionally taken in molar units) is 8.80.

(Values after BindingDB's records for doi:10.1021/acsmedchemlett.8b00149 (Merck, 2018).)
